Source: US20230257480A1, “ENHANCING BLOOD-BRAIN BARRIER DRUG TRANSPORT BY TARGETING ENDOGENOUS REGULATORS” (THE BOARD OF TRUSTEES OF THE LELAND STANFORD JUNIOR …, priority 2019, published 2023)

Columns and labels:
[1] = system: brain endothelial cells; experiment: Flow cytometry of brain endothelial cell uptake of tracer after ALPL inhibitor treatment; format: in vivo, mice; conditions: Atto 647N-labeled plasma, vs vehicle
Excerpt: FIGS. 14A-14D are graphs illustrating flow cytometry quantification of brain endothelial cell uptake of plasma from young mice (3 m.o.) (FIG. 14A), plasma from aged mice (22 m.o.) (FIG. 14B), human holo-transferrin (hu-Tf) from aged mice (FIG. 14C), or transferrin receptor antibody (TfR Ab) from aged mice (FIG. 14D) treated with vehicle (grey) or anti-ALPL (green) via IP injections twice daily for three days, as assessed by % of BECs that are tracer^+ and relative MFI of tracer^+ BECs (for plasma, n=4; for hu-Tf, n=6 vehicle, n=5 anti-ALPL; for TfR Ab, n=9, two-sided t-test, mean+/−s.e.m.). Tracer refers to plasma, hu-Tf, or TfR Ab. FIG. 14E includes representative images of hu-Tf^+ neurons detected in the cortex of mice treated with ALPL inhibitor. Scale bar=40 microns. […] FIG. 14H includes graphs illustrating flow cytometry quantification of brain endothelial cell and brain parenchymal cell uptake of 3 kDa dextran tracer, which probes for disruptions in paracellular permeability, in young mice (3 m.o.) and aged mice (22 m.o.) (n=6 vehicle, n=5 anti-ALPL, two-sided t-test, mean+/−s.e.m.).
CNS cell isolation adopted previously described methods42,139,140. […] For analysis of plasma uptake, at least 1,000 cells of each population of interest were analyzed per sample. […]

[2] = system: paracellular tight junctions; experiment: 3 kDa dextran tracer uptake probing paracellular permeability after ALPL inhibitor treatment; format: in vivo; conditions: young and aged mice, vs vehicle
Excerpt: FIGS. 14A-14D are graphs illustrating flow cytometry quantification of brain endothelial cell uptake of plasma from young mice (3 m.o.) (FIG. 14A), plasma from aged mice (22 m.o.) (FIG. 14B), human holo-transferrin (hu-Tf) from aged mice (FIG. 14C), or transferrin receptor antibody (TfR Ab) from aged mice (FIG. 14D) treated with vehicle (grey) or anti-ALPL (green) via IP injections twice daily for three days, as assessed by % of BECs that are tracer^+ and relative MFI of tracer^+ BECs (for plasma, n=4; for hu-Tf, n=6 vehicle, n=5 anti-ALPL; for TfR Ab, n=9, two-sided t-test, mean+/−s.e.m.). Tracer refers to plasma, hu-Tf, or TfR Ab. FIG. 14E includes representative images of hu-Tf^+ neurons detected in the cortex of mice treated with ALPL inhibitor. Scale bar=40 microns. FIG. 14F includes graphs showing circulating human holo-transferrin and transferrin receptor antibody in blood plasma upon time of sacrifice to control for and ensure no differences in injected amount (for hu-Tf+, n=6 vehicle, n=5 anti-ALPL; for TfR Ab, n=9, two-sided t-test, mean+/−s.e.m.). […] FIG. 14H includes graphs illustrating flow cytometry quantification of brain endothelial cell and brain parenchymal cell uptake of 3 kDa dextran tracer, which probes for disruptions in paracellular permeability, in young mice (3 m.o.) and aged mice (22 m.o.) (n=6 vehicle, n=5 anti-ALPL, two-sided t-test, mean+/−s.e.m.). […]

In the case of `COc1ccc(OC)c(S(=O)(=O)Nc2cnc3ccccc3c2)c1` [ALPL inhibitor, 2,5-Dimethoxy-N-(quinolin-3-yl)benzenesulfonamide], the “plasma uptake in brain endothelial cells, aged mice” value ([1]; aged (22 m.o.) mice) is reported as “increased”, the “plasma uptake in brain endothelial cells, young mice” value ([1]; young (3 m.o.) mice) is reported as “increased” and the paracellular tight junctions [2] is reported as “did not perturb vascular morphology or compromise”.
